Measured values published in patent publication US20260234159A1, “SMALL MOLECULE TREATMENT OF FATTY LIVER DISEASE AND HCC” (SCANDIEDGE THERAPEUTICS AB, priority 2023, published 2026).

Assays:
JNK1/2/3 = test: Western blot, JNK1/2/3 P54 and p46 isoforms; assay type: cell-based, human; settings: 10 μM, 2 days
Experimental: HepG2 cells were seeded into a 6-well plate at 400,000 cells per well. After treatment with 10 μM of JNK-IN-5A and its derivatives for two days, lysates were harvested with CelLytic M (C2978, Sigma-Aldrich). […] SDS PAGE were performed using Mini-PROTEAN® TGX™ Precast Gels (Bio-Rad) and transferred using Trans-Blot® Turbo™ Transfer System (Bio-Rad). […] ImageQuantTMLAS 500 (29-0050-63, GE) was used to detect protein bands.

HepG2 cells = test: Wound healing assay; assay type: cell-based; settings: Homo sapiens, HepG2, 96 h, day 4, untreated 100% wound closure, read-out: wound healing delayed by
In short: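 HepG2 monolayers grown to 95-100% confluence were scratched with a pipette tip and treated with compounds at 1 μM. Wounds were imaged from day 0 until closure in the control group, and wound area was measured from the images.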

[1] = In vivo toxicological study in rats: plasma chemistry; set-up: species or system rats of the Wistar strain
Experimental: Forty-two male and forty-two female rats of the Wistar strain were allocated to the study. Three groups of three males and three females were given doses of 30, 100 and 300 mg/kg of target compounds (Table 8). The vehicle was 1.5 w/w % HPMC, 1.5 w/w % PS80 in 10 mM PBS, pH 7 and dose volume were 5 mL/kg. The animals were acclimatised at least 14 day prior to the study and exposed to a 12 hours light, 12 hours dark light cycle. The formulations were administered via oral gavage. Administration occurred once daily in the morning for seven consecutive days. Blood for scheduled haematology and plasma chemistry were taken at necropsy. For plasma chemistry, 0.6 ml blood (lithium heparin) per animal and for haematology, 0.5 ml blood (K2EDTA) per animal. The blood and plasma were analysed using Exigo analyzer and Vetscan equipment. Blood samples were kept in room temperature […] after collection and mixing. The blood samples were analysed as whole blood within 60 min of collection. The VetScan analyser was calibrated with calibration samples of known plasma levels of each parameter before start of analysis, occasionally during the analysis period of study samples and after completed analyses (Table 10).

[2] = female, 30 mg/kg oral daily 7 d
[3] = female, 100 mg/kg oral daily 7 d
[4] = female, 300 mg/kg oral daily 7 d
[5] = plasma, Sex/Group F/8, 30-300 mg/kg of SET159
[6] = plasma, Sex/Group F/9, 30-300 mg/kg of SET159
[7] = plasma, Sex/Group F/10, 30-300 mg/kg of SET159
[8] = plasma, Sex/Group M/8, 30-300 mg/kg of SET159
[9] = plasma, Sex/Group M/9, 30-300 mg/kg of SET159
[10] = plasma, Sex/Group M/10, 30-300 mg/kg of SET159

In the case of `COc1ccc(C(=O)Nc2sc3c(c2C#N)CCCCC3)cc1OC` [PKL-A135, N-(3-cyano-5,6,7,8-tetrahydro-4H-cyclohepta[b]thiophen-2-yl)-3,4-dimethoxy-benzamide], the “JNK1/2/3 p46 expression” value (JNK1/2/3) was 0.77 times, the inhibition at 1 µM (HepG2 cells) was 31.2% and the ALB [1, 2] was 56 g/L. For the same compound, the ALP [1, 2] was 117 U/L, the ALT [1, 2] was 23 U/L and the AMY [1, 2] was 564 U/L. It also gave a BUN [1, 2] of 6.0 mmol/L, a CA [1, 2] of 2.91 mmol/L and a CRE [1, 2] of 31 µmol/L. The GLOB [1, 2] was 8 g/L, the GLU [1, 2] was 8.1 mmol/L and the “K+” value [1, 2] was 4.6 mmol/L. For the same compound, the “NA+” value [1, 2] was 141 mmol/L, the PHOS [1, 2] was 2.30 mmol/L and the TBIL [1, 2] was 5.3 µmol/L. The TP [1, 2] was 64 g/L, the ALB [1, 3] was 59 g/L and the ALP [1, 3] was 126 U/L. The ALT [1, 3] was 23 U/L, the AMY [1, 3] was 589 U/L and the BUN [1, 3] was 5.7 mmol/L. It also gave a CA [1, 3] of 2.96 mmol/L, a CRE [1, 3] of 44 µmol/L and a GLOB [1, 3] of 11 g/L. For the same compound, the GLU [1, 3] was 7.9 mmol/L, the “K+” value [1, 3] was 4.4 mmol/L and the “NA+” value [1, 3] was 140 mmol/L. For the same compound, the PHOS [1, 3] was 2.34 mmol/L, the TBIL [1, 3] was 5.0 µmol/L and the TP [1, 3] was 71 g/L. The ALB [1, 4] was 59 g/L, the ALP [1, 4] was 156 U/L and the ALT [1, 4] was 20 U/L. For the same compound, the AMY [1, 4] was 590 U/L, the BUN [1, 4] was 5.3 mmol/L and the CA [1, 4] was 3.00 mmol/L. For the same compound, the CRE [1, 4] was 41 µmol/L, the GLOB [1, 4] was 9 g/L and the GLU [1, 4] was 7.8 mmol/L. The “K+” value [1, 4] was 4.6 mmol/L, the “NA+” value [1, 4] was 142 mmol/L and the PHOS [1, 4] was 2.91 mmol/L. For the same compound, the TBIL [1, 4] was 5.3 µmol/L, the TP [1, 4] was 67 g/L and the ALB ([1]; male, 30 mg/kg oral daily 7 d) was 50 g/L. It also gave an ALP ([1]; male, 30 mg/kg oral daily 7 d) of 234 U/L, an ALT ([1]; male, 30 mg/kg oral daily 7 d) of 33 U/L and an AMY ([1]; male, 30 mg/kg oral daily 7 d) of 757 U/L. It also gave a BUN ([1]; male, 30 mg/kg oral daily 7 d) of 5.6 mmol/L, a CA ([1]; male, 30 mg/kg oral daily 7 d) of 3.01 mmol/L and a CRE ([1]; male, 30 mg/kg oral daily 7 d) of 39 µmol/L. The GLOB ([1]; male, 30 mg/kg oral daily 7 d) was 15 g/L, the GLU ([1]; male, 30 mg/kg oral daily 7 d) was 8.5 mmol/L and the “K+” value ([1]; male, 30 mg/kg oral daily 7 d) was 4.80 mmol/L. The “NA+” value ([1]; male, 30 mg/kg oral daily 7 d) was 140 mmol/L, the PHOS ([1]; male, 30 mg/kg oral daily 7 d) was 2.20 mmol/L and the TBIL ([1]; male, 30 mg/kg oral daily 7 d) was 5.0 µmol/L. The TP ([1]; male, 30 mg/kg oral daily 7 d) was 65 g/L, the ALB ([1]; male, 100 mg/kg oral daily 7 d) was 50 g/L and the ALP ([1]; male, 100 mg/kg oral daily 7 d) was 259 U/L. It also gave an ALT ([1]; male, 100 mg/kg oral daily 7 d) of 25 U/L, an AMY ([1]; male, 100 mg/kg oral daily 7 d) of 770 U/L and a BUN ([1]; male, 100 mg/kg oral daily 7 d) of 5.6 mmol/L. The CA ([1]; male, 100 mg/kg oral daily 7 d) was 2.95 mmol/L, the CRE ([1]; male, 100 mg/kg oral daily 7 d) was 36 µmol/L and the GLOB ([1]; male, 100 mg/kg oral daily 7 d) was 12 g/L. The GLU ([1]; male, 100 mg/kg oral daily 7 d) was 8.9 mmol/L, the “K+” value ([1]; male, 100 mg/kg oral daily 7 d) was 4.83 mmol/L and the “NA+” value ([1]; male, 100 mg/kg oral daily 7 d) was 138 mmol/L. The PHOS ([1]; male, 100 mg/kg oral daily 7 d) was 2.51 mmol/L, the TBIL ([1]; male, 100 mg/kg oral daily 7 d) was 4.7 µmol/L and the TP ([1]; male, 100 mg/kg oral daily 7 d) was 61 g/L. For the same compound, the ALB ([1]; male, 300 mg/kg oral daily 7 d) was 50 g/L, the ALP ([1]; male, 300 mg/kg oral daily 7 d) was 275 U/L and the ALT ([1]; male, 300 mg/kg oral daily 7 d) was 28 U/L. The AMY ([1]; male, 300 mg/kg oral daily 7 d) was 835 U/L, the BUN ([1]; male, 300 mg/kg oral daily 7 d) was 5.7 mmol/L and the CA ([1]; male, 300 mg/kg oral daily 7 d) was 2.98 mmol/L. It also gave a CRE ([1]; male, 300 mg/kg oral daily 7 d) of 38 µmol/L, a GLOB ([1]; male, 300 mg/kg oral daily 7 d) of 13 g/L and a GLU ([1]; male, 300 mg/kg oral daily 7 d) of 9.0 mmol/L. The “K+” value ([1]; male, 300 mg/kg oral daily 7 d) was 5.2 mmol/L, the “NA+” value ([1]; male, 300 mg/kg oral daily 7 d) was 140 mmol/L and the PHOS ([1]; male, 300 mg/kg oral daily 7 d) was 2.64 mmol/L. For the same compound, the TBIL ([1]; male, 300 mg/kg oral daily 7 d) was 5.0 µmol/L and the TP ([1]; male, 300 mg/kg oral daily 7 d) was 63 g/L.

With `N#Cc1c(NC(=O)c2cccc3ccccc23)sc2c1CCN(C(=O)Nc1ccccc1OC(F)(F)F)C2` [PKL-A159] the “JNK1/2/3 p46 expression” value (JNK1/2/3) was “not significantly altered”, the inhibition at 1 µM (HepG2 cells) was 35.5% and the ALB [1, 5] was 56 g/L. It also gave an ALP [1, 5] of 179 U/L, an ALT [1, 5] of 22 U/L and an AMY [1, 5] of 541 U/L. For the same compound, the BUN [1, 5] was 6.2 mmol/L, the CA [1, 5] was 2.76 mmol/L and the CRE [1, 5] was 39 µmol/L. The GLOB [1, 5] was 9 g/L, the GLU [1, 5] was 7.8 mmol/L and the “K+” value [1, 5] was 4.9 mmol/L. For the same compound, the “NA+” value [1, 5] was 139 mmol/L, the PHOS [1, 5] was 2.59 mmol/L and the TBIL [1, 5] was 4.0 µmol/L. The TP [1, 5] was 65 g/L, the ALB [1, 6] was 57 g/L and the ALP [1, 6] was 135 U/L. The ALT [1, 6] was 21 U/L, the AMY [1, 6] was 542 U/L and the BUN [1, 6] was 5.1 mmol/L. For the same compound, the CA [1, 6] was 2.88 mmol/L, the CRE [1, 6] was 46 µmol/L and the GLOB [1, 6] was 8 g/L. For the same compound, the GLU [1, 6] was 7.0 mmol/L, the “K+” value [1, 6] was 4.4 mmol/L and the “NA+” value [1, 6] was 139 mmol/L. It also gave a PHOS [1, 6] of 2.65 mmol/L, a TBIL [1, 6] of 4.3 µmol/L and a TP [1, 6] of 65 g/L. For the same compound, the ALB [1, 7] was 53 g/L, the ALP [1, 7] was 175 U/L and the ALT [1, 7] was 23 U/L. The AMY [1, 7] was 481 U/L, the BUN [1, 7] was 4.8 mmol/L and the CA [1, 7] was 2.89 mmol/L. For the same compound, the CRE [1, 7] was 40 µmol/L, the GLOB [1, 7] was 9 g/L and the GLU [1, 7] was 7.8 mmol/L. The “K+” value [1, 7] was 4.7 mmol/L, the “NA+” value [1, 7] was 139 mmol/L and the PHOS [1, 7] was 2.80 mmol/L. For the same compound, the TBIL [1, 7] was 4.0 µmol/L, the TP [1, 7] was 62 g/L and the ALB [1, 8] was 49 g/L. For the same compound, the ALP [1, 8] was 274 U/L, the ALT [1, 8] was 25 U/L and the AMY [1, 8] was 719 U/L. The BUN [1, 8] was 5.9 mmol/L, the CA [1, 8] was 2.94 mmol/L and the CRE [1, 8] was 29 µmol/L. For the same compound, the GLOB [1, 8] was 11 g/L, the GLU [1, 8] was 8.0 mmol/L and the “K+” value [1, 8] was 5.0 mmol/L. The “NA+” value [1, 8] was 141 mmol/L, the PHOS [1, 8] was 2.44 mmol/L and the TBIL [1, 8] was 4.0 µmol/L. It also gave a TP [1, 8] of 60 g/L, an ALB [1, 9] of 47 g/L and an ALP [1, 9] of 324 U/L. The ALT [1, 9] was 30 U/L, the AMY [1, 9] was 823 U/L and the BUN [1, 9] was 6.8 mmol/L. The CA [1, 9] was 2.99 mmol/L, the CRE [1, 9] was 36 µmol/L and the GLOB [1, 9] was 16 g/L. For the same compound, the GLU [1, 9] was 8.8 mmol/L, the “K+” value [1, 9] was 5.0 mmol/L and the “NA+” value [1, 9] was 141 mmol/L. The PHOS [1, 9] was 2.43 mmol/L, the TBIL [1, 9] was 4.3 µmol/L and the TP [1, 9] was 63 g/L. It also gave an ALB [1, 10] of 50 g/L, an ALP [1, 10] of 284 U/L and an ALT [1, 10] of 24 U/L. It also gave an AMY [1, 10] of 806 U/L, a BUN [1, 10] of 6.1 mmol/L and a CA [1, 10] of 3.02 mmol/L. For the same compound, the CRE [1, 10] was 47 µmol/L, the GLOB [1, 10] was 13 g/L and the GLU [1, 10] was 7.9 mmol/L. For the same compound, the “K+” value [1, 10] was 4.8 mmol/L, the “NA+” value [1, 10] was 142 mmol/L and the PHOS [1, 10] was 2.42 mmol/L. The TBIL [1, 10] was 4.3 µmol/L and the TP [1, 10] was 62 g/L.
